In patent US9200051B2, “Peptide compound” (TAKEDA PHARMACEUTICAL COMPANY LIMITED, priority 2013, dated 2015) one finds solubility and EC50 data, which are given here for 3 compounds.

The structures appear in SMILES notation. Like-named read-outs stand apart in the source and are kept apart here. Square brackets hold non-standard residues; d marks the D form. Peptide text beside a SMILES is read from it. αMeF = C[C@](N)(Cc1ccccc1)C(=O)O; Aib = CC(C)(N)C(=O)O Where only a bound is given, the exact number is not on record here.

The nature of series [1]: Solubility test in Britton-Robinson buffer, observed visually. The format is physicochemical. Here is the method:
The test compound of approximately 2 mg was measured precisely. Solvents (10 μL, 20 μL or 40 μL) with different pH (Britton-Robinson buffer (pH 3, 5, 7, 9)) were added to each test compound at 25° C., and the solubility was observed visually.

Series [2] addresses T1, human GLP-1R (Homo sapiens, UniProt P43220).
T1 construct: expressed in transfected cells; host or cells: CHO-K1, plasmids hGLP-1/pIRESneo3 and Cre-luc(Zeo)
The series can be described thus: Agonist activity against human GLP-1R, CRE-luciferase reporter assay in hGLP-1R/CRE-luc/CHO-K1 cells. In kind it is cell-based. Background: Reporter assays use an easily measured gene product as a stand-in for the process of interest.

For series [3], the target named is T2, human glucagon R (Homo sapiens, UniProt P47871).
T2 construct: expressed in transfected cells; host or cells: CHO-K1 (CRE-LUC/CHO-K1), plasmid hGlucagonR/pMSRα-neo
T2 sequence (P47871 26-477): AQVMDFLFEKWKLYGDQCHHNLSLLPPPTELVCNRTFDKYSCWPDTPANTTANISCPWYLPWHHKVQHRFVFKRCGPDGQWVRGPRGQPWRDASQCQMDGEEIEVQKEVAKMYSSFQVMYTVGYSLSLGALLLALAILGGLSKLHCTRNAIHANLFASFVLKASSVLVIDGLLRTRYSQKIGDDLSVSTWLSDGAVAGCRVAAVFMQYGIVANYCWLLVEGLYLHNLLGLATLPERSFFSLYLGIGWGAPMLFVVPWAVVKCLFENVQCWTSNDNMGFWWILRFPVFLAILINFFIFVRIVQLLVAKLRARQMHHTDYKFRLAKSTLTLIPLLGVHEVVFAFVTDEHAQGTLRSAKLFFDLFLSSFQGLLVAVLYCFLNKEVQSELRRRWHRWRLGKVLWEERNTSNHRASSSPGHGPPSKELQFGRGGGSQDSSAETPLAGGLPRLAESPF
The series is described as follows: Agonist activity against human glucagon R, CRE-luciferase reporter assay in hGlucagonR/CRE-LUC/CHO-K1 cells. The format is cell-based.

Series [4] concerns the target T3, human GIPR (Homo sapiens, UniProt P48546).
T3 construct: expressed in transfected cells; host or cells: CHO-K1 (CRE-LUC/CHO-K1), plasmid hGIPR/pMSRα-neo
T3 sequence (P48546 22-466): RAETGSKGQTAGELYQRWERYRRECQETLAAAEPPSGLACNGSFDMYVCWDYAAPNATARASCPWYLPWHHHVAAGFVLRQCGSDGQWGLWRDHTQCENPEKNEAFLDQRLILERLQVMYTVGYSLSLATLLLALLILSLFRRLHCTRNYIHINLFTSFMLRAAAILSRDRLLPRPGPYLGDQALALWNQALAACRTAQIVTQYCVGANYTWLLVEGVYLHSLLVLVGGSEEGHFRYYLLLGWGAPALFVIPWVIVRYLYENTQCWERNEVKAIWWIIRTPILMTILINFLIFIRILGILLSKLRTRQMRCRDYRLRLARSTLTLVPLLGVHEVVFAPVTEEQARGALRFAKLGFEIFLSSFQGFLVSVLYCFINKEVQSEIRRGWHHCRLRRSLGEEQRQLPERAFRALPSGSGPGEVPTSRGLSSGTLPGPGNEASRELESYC
The series is described as follows: Agonist activity against human GIPR, CRE-luciferase reporter assay (rise in intracellular cAMP) in hGIPR/CRE-LUC/CHO-K1 cells. In kind it is cell-based.

Where [5] appears, read: hGLP-1R/CRE-luc/CHO-K1 cells, 4 hours incubation, 10 nM GLP-1 = 100%, read-out: Agonist activity (EC50) hGLP-1R.
[6] abbreviates: hGlucagonR/CRE-LUC/CHO-K1 cells, 4 hours incubation, 10 nM glucagon = 100%, read-out: Agonist activity (EC50) hGCGR.
The mark [7] stands for this setting: hGIPR/CRE-LUC/CHO-K1 cells, 4 hours incubation, 10 nM GIP = 100%, read-out: Agonist activity (EC50) hGIPR.

T1 sequence (P43220 24-463): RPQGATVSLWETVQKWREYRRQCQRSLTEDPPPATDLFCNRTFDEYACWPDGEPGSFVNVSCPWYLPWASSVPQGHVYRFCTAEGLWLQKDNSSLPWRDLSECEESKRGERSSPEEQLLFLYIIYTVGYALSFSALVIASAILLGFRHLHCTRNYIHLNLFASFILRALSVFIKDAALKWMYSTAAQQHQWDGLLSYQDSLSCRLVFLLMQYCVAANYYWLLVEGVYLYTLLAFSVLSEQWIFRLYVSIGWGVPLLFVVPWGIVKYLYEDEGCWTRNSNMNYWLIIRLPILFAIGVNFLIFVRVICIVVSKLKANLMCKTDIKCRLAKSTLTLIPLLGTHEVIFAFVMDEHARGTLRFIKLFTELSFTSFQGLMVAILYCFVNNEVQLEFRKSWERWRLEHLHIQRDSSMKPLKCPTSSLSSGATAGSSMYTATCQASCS

Take `CC[C@H](C)[C@H](NC(=O)C(C)(C)NC(=O)[C@H](Cc1ccc(O)cc1)NC(=O)[C@H](CC(=O)O)NC(=O)[C@H](CO)NC(=O)[C@@H](NC(=O)[C@](C)(Cc1ccccc1)NC(=O)[C@@H](NC(=O)CNC(=O)[C@H](CCC(=O)O)NC(=O)C(C)(C)NC(=O)[C@@H](N)Cc1ccc(O)cc1)[C@@H](C)O)[C@@H](C)O)C(=O)NC(C)(C)C(=O)N[C@@H](CC(C)C)C(=O)N[C@@H](CC(=O)O)C(=O)N[C@@H](CCCCN)C(=O)N[C@@H](CCC(N)=O)C(=O)N[C@@H](C)C(=O)N[C@@H](CCC(N)=O)C(=O)N[C@@H](C)C(=O)N[C@@H](CCC(=O)O)C(=O)N[C@@H](Cc1ccccc1)C(=O)N[C@H](C(=O)N[C@@H](CCCCN)C(=O)N[C@@H](Cc1c[nH]c2ccccc12)C(=O)N[C@@H](CC(C)C)C(=O)N[C@@H](CC(C)C)C(=O)N[C@@H](CCCCN)C(=O)NCC(=O)NCC(=O)N1CCC[C@H]1C(=O)N[C@@H](CO)C(=O)N[C@@H](CO)C(=O)NCC(=O)N[C@@H](C)C(=O)N1CCC[C@H]1C(=O)N1CCC[C@H]1C(=O)N1CCC[C@H]1C(=O)N[C@@H](CO)C(=O)N[C@@H](CCCCN)C(N)=O)C(C)C` [Example 2] (H-Y[Aib]EGT[αMeF]TSDY[Aib]I[Aib]LDKQAQAEFVKWLLKGGPSSGAPPPSK-NH2): the solubility in series [1] (Britton-Robinson buffer pH 3, 25° C., visual, read-out: Solubility (mg /mL) pH 3) is over 100 mg/mL; in series [1] (Britton-Robinson buffer pH 5, 25° C., visual, read-out: Solubility (mg /mL) pH 5), over 100 mg/mL; in series [1] (Britton-Robinson buffer pH 7, 25° C., visual, read-out: Solubility (mg /mL) pH 7), over 50 mg/mL; in series [1] (Britton-Robinson buffer pH 9, 25° C., visual, read-out: Solubility (mg /mL) pH 9), over 50 mg/mL. Besides, the results for the half-maximal effective concentration (EC50) in series [2], in series [3] and in series [4] were 0.016 nM, over 1000 nM and 0.0068 nM, respectively.
Regarding `CC(C)C[C@H](NC(=O)[C@H](CC(C)C)NC(=O)[C@H](Cc1c[nH]c2ccccc12)NC(=O)[C@H](CCCCN)NC(=O)[C@@H](NC(=O)[C@H](Cc1ccccc1)NC(=O)[C@H](CCC(=O)O)NC(=O)[C@H](C)NC(=O)[C@H](CCC(N)=O)NC(=O)[C@H](C)NC(=O)[C@H](CCC(N)=O)NC(=O)[C@H](CCCCN)NC(=O)[C@H](CC(=O)O)NC(=O)[C@H](CC(C)C)NC(=O)[C@H](Cc1ccc(O)cc1)NC(=O)[C@H](CCCCN)NC(=O)C(C)(C)NC(=O)[C@H](Cc1ccc(O)cc1)NC(=O)[C@H](CC(=O)O)NC(=O)[C@H](CO)NC(=O)[C@@H](NC(=O)[C@](C)(Cc1ccccc1)NC(=O)[C@@H](NC(=O)CNC(=O)[C@H](CCC(=O)O)NC(=O)C(C)(C)NC(=O)[C@@H](N)Cc1ccc(O)cc1)[C@@H](C)O)[C@@H](C)O)C(C)C)C(=O)N[C@@H](CCCCN)C(=O)NCC(=O)NCC(=O)N1CCC[C@H]1C(=O)N[C@@H](CO)C(=O)N[C@@H](CO)C(=O)NCC(=O)N[C@@H](C)C(=O)N1CCC[C@H]1C(=O)N1CCC[C@H]1C(=O)N1CCC[C@H]1C(=O)N[C@@H](CO)C(=O)N[C@@H](CCCCN)C(N)=O` [Example 24] (H-Y[Aib]EGT[αMeF]TSDY[Aib]KYLDKQAQAEFVKWLLKGGPSSGAPPPSK-NH2), the solubility in series [1] (pH 3), in series [1] (pH 5), in series [1] (pH 7) and in series [1] (pH 9) was over 200 mg/mL each time. In addition, the EC50 (commonly the midpoint of the concentration-response curve) in series [2] (setting [5]) is 0.011 nM; in series [3] (setting [6]), over 1000 nM; in series [4] (setting [7]) it was 0.0099 nM.
Turning to `CC(C)C[C@H](NC(=O)[C@H](CC(C)C)NC(=O)[C@H](Cc1c[nH]c2ccccc12)NC(=O)[C@H](CCCCN)NC(=O)[C@@H](NC(=O)[C@H](Cc1ccccc1)NC(=O)[C@H](CCC(=O)O)NC(=O)[C@H](CCC(N)=O)NC(=O)[C@H](CCC(N)=O)NC(=O)[C@H](C)NC(=O)[C@H](CCC(N)=O)NC(=O)[C@H](CCCCN)NC(=O)[C@H](CC(=O)O)NC(=O)[C@H](CC(C)C)NC(=O)[C@H](Cc1ccc(O)cc1)NC(=O)[C@H](CCCCN)NC(=O)C(C)(C)NC(=O)[C@H](Cc1ccc(O)cc1)NC(=O)[C@H](CC(=O)O)NC(=O)[C@H](CO)NC(=O)[C@@H](NC(=O)[C@](C)(Cc1ccccc1)NC(=O)[C@@H](NC(=O)CNC(=O)[C@H](CCC(=O)O)NC(=O)C(C)(C)NC(=O)[C@@H](N)Cc1ccc(O)cc1)[C@@H](C)O)[C@@H](C)O)C(C)C)C(=O)N[C@@H](CCCCN)C(=O)NCC(=O)NCC(=O)N1CCC[C@H]1C(=O)N[C@@H](CO)C(=O)N[C@@H](CO)C(=O)NCC(=O)N[C@@H](C)C(=O)N1CCC[C@H]1C(=O)N1CCC[C@H]1C(=O)N1CCC[C@H]1C(=O)N[C@@H](CO)C(=O)N[C@@H](CCCCN)C(N)=O` [Example 25] (H-Y[Aib]EGT[αMeF]TSDY[Aib]KYLDKQAQQEFVKWLLKGGPSSGAPPPSK-NH2), the solubility in series [1] (pH 3), in series [1] (pH 5), in series [1] (pH 7) and in series [1] (pH 9) was over 200 mg/mL throughout. The figures for the EC50 in series [2] (setting [5]), in series [3] (setting [6]) and in series [4] (setting [7]) were 0.014 nM, over 1000 nM and 0.013 nM, respectively.
